Measured values taken from ChEMBL document CHEMBL1136867, “2009 Edward E Smissman Award. Pharmaceutical "gold" from neurostabilizing agents: topiramate and successor molecules” (J Med Chem, 2009).

Target: Carbonic anhydrase 2 (Homo sapiens, UniProt P00918)
Test: Inhibition of human carbonic anhydrase 2

## NS(=O)(=O)NCc1csc2ccccc12
  IC50: 110 µM
